{"source": "ChEMBL document CHEMBL1137985", "about": "“Synthesis and enzymatic evaluation of xanthine oxidase-activated prodrugs based on inhibitors of thymidine phosphorylase” (Bioorg Med Chem Lett, 2004)", "key": {"Thymidine phosphorylase [1]": {"target": "T1, Thymidine phosphorylase (Escherichia coli K-12, UniProt P07650)", "T1 sequence (P07650 whole entry)": "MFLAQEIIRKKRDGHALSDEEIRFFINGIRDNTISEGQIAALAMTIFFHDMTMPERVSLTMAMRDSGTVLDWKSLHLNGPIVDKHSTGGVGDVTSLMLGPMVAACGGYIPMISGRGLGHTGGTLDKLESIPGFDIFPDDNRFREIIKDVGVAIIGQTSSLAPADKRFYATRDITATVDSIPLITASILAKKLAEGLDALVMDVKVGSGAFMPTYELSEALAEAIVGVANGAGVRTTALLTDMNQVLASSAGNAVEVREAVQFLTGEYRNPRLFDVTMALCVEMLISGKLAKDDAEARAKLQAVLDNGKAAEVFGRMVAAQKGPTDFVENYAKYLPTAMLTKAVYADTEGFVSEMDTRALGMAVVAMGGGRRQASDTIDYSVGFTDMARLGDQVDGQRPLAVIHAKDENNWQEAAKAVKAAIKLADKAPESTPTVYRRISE", "assay": "Inhibition of Thymidine phosphorylase from Escherichia coli; no inhibition at 213 uM"}, "Thymidine phosphorylase [2]": {"target": "T1, Thymidine phosphorylase", "assay": "Inhibition of Thymidine phosphorylase from Escherichia coli; no inhibition at 47.2 uM"}, "Thymidine phosphorylase [3]": {"target": "T1, Thymidine phosphorylase", "assay": "Inhibition of Thymidine phosphorylase from Escherichia coli; no inhibition at 137 uM"}, "Thymidine phosphorylase [4]": {"target": "T1, Thymidine phosphorylase", "assay": "Inhibition of Thymidine phosphorylase from Escherichia coli; no inhibition at 207 uM"}, "Thymidine phosphorylase [5]": {"target": "T1, Thymidine phosphorylase", "assay": "Inhibition of Thymidine phosphorylase from Escherichia coli; no inhibition at 148 uM"}, "Thymidine phosphorylase [6]": {"target": "T1, Thymidine phosphorylase"}}, "note": "Where a name gives a salt, the structure may show the parent alone."}
{"compound": "Nc1ncncc1Br", "values": [{"measurement": "IC50", "setting": "Thymidine phosphorylase [1]", "value": "No inhibition"}]}
{"compound": "Cl.N=C1CCCN1Cc1nc[nH]c(=O)c1Cl", "values": [{"measurement": "IC50", "setting": "Thymidine phosphorylase [2]", "value": "No inhibition"}]}
{"compound": "Nc1[nH]c(=O)ncc1Br", "values": [{"measurement": "IC50", "setting": "Thymidine phosphorylase [3]", "value": "No inhibition"}]}
{"compound": "O=c1[nH]cnc2[nH]ccc12", "values": [{"measurement": "IC50", "setting": "Thymidine phosphorylase [4]", "value": "No inhibition"}]}
{"compound": "O=c1ncc2cc[nH]c2[nH]1", "values": [{"measurement": "IC50", "setting": "Thymidine phosphorylase [5]", "value": "No inhibition"}]}
{"compound": "Nc1nc[nH]c(=O)c1Br", "values": [{"measurement": "IC50", "setting": "Thymidine phosphorylase [5]", "value": "No inhibition"}]}
